Laboratory results as given in PMC4728427, “Mechanism of allosteric activation of TMEM16A/ANO1 channels by a commonly used chloride channel blocker” (British Journal of Pharmacology, 2016).

Molecular target: T1, Mouse TMEM16A (Mus musculus, UniProt Q8BHY3)
T1 construct: expressed in transfected cells; host or cells: HEK-293T
T1 sequence (Q8BHY3 1-960): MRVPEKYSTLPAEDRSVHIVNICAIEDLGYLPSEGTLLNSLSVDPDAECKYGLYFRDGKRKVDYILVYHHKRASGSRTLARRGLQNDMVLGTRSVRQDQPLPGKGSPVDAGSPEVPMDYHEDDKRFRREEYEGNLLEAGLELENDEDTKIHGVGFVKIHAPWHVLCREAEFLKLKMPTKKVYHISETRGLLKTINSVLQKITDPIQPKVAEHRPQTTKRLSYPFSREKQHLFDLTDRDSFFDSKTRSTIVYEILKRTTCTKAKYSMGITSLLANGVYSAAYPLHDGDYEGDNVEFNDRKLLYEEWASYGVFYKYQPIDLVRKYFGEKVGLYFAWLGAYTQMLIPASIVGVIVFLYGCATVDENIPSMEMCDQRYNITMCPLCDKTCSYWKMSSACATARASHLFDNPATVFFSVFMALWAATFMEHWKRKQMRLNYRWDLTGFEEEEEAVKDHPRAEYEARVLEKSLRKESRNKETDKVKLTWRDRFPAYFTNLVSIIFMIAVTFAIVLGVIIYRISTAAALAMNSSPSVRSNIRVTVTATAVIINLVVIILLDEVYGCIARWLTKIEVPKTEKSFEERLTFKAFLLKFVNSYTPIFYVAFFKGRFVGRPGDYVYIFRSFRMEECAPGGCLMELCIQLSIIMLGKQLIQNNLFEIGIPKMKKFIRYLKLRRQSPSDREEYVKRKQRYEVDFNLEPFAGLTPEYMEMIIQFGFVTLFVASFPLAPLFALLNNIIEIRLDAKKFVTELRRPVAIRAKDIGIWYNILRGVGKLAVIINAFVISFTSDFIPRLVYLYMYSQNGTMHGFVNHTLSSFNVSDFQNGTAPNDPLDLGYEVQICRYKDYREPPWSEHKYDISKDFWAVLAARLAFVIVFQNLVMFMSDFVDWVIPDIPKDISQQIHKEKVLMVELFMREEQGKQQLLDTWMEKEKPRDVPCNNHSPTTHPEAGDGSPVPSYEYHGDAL
Experiment: Whole-cell TMEM16A current versus Vm relationship with extracellular A9C, 300 nM [Ca2+]i
Type: cell-based
Experimental: Mouse TMEM16A (GenBank NM_178642) subcloned into pcDNA3.1 vector was used in this study (Alexander et al., 2013). HEK‐293T cells were cultured as previously described (Smith et al., 2013) and transfected with 0.5–1 μg of TMEM16A and 0.1 μg of CD8 constructs using Fugene HD (Promega, Madison, WI, USA) according to the manufacturer's instructions. Cells were used ~12–36 h after transfection. Transfected cells were visualized using the anti‐CD8 antibody‐coated beads method (Jurman et al., 1994).
TMEM16A currents were measured with the whole‐cell or inside‐out patch configuration of the patch‐clamp technique as detailed in the Supporting Information. The exchange of solutions was achieved by using a local perfusion system consisting of eight tubes of 1.2 mm diameter in which the tip of the patch pipette was inserted. In some experiments, ultra‐rapid (<50 ms) changes in A9C concentration ([A9C]) (‘concentration jumps’) were achieved using a computer‐controlled perfusion system (Warner Instruments, Hamden, CT, USA).
The intracellular solution contained (mM) 130 CsCl, 10 EGTA, 1 MgCl2, 10 HEPES and 8 CaCl2 to obtain ~300 nM of [Ca^2+]i; pH was adjusted to 7.3 with NaOH. The intracellular solutions containing ~600 nM, ~1000 nM and ~12.5 μM [Ca^2+]i were obtained by replacing EGTA with equimolar H‐EDTA and by adding 2.1, 3.1 and 7.8 mM CaCl2 respectively. The extracellular solution contained (mM) 150 NaCl, 1 CaCl2, 1 MgCl2, 10 glucose, 10 D‐mannitol and 10 HEPES; pH was adjusted to 7.4 with NaOH. […] A9C was dissolved in DMSO (stock concentration, 300 mM); thus, the final concentration of DMSO was ≤1%. Aliquots of the stock solution were kept at −20° and used within 5 days.
Current versus V m relationships were constructed by measuring currents in response to 1 s V m steps (test pulses) from −100 to +100 mV in 40 mV increments (unless stated otherwise) after a 1 s V m step to +70 mV (pre‐pulse). Pulses were elicited every 2 s from a holding V m of 0 mV. Steady‐state currents were measured at the end of the test pulses. As detailed in the Results, in the presence of 300 nM [Ca^2+]i and extracellular A9C, the test‐pulse currents reached a peak within the first ~50 ms of the test pulse. These peak currents were also measured and plotted against the V m of the test pulse. Current density was obtained by dividing the current amplitude for the cell capacitance.
For determination of the current reversal potential (E rev), instantaneous currents were estimated from extrapolation of single exponential fits of the test‐pulse currents to the beginning of each test pulse. These instantaneous current values were plotted as a function of the V m, and the relative chord conductance was measured between an interval of ±20 m V around the E rev (Tammaro et al., 2005; Adomaviciene et al., 2013).
The project began by examining if this also applies to cloned TMEM16A channels. In the presence of increasing extracellular [A9C] ([A9C]ext), a pre‐pulse of +70 mV was used to open TMEM16A channels followed by a series of test pulses (Figure 1).
Ta C.M., Adomaviciene A., Rorsman N., Garnett H. and Tammaro P.
SUPPLEMENTARY INFORMATION
TMEM16A currents were measured with the whole-cell or inside-out configuration of
the patch-clamp technique using an Axon 200B amplifier (Molecular Devices, USA)
controlled with GE-pulse software (http://users.ge.ibf.cnr.it/pusch/programs-mik.htm).
Currents were filtered at 2-5 kHz and sampled at 10 kHz, unless stated otherwise. […]

## O=C(O)c1c2ccccc2cc2ccccc12 [A9C, Anthracene‐9‐carboxylic acid]
3000 μM A9C extracellular
  peak current at −100 mV relative to control: ~ 13 folds
3000 μM [A9C]ext, Vm > 60 mV, whole-cell
  steady-state current decrease: up to approximately threefold
3000 μM [A9C]ext, control 4.5 ± 1.4 mV
  E rev of TMEM16A currents: 8.3 ± 1.4 mV
[A9C]ext ≤ 100 μM, Vm > 60 mV, whole-cell
  steady-state current increase: ~ 1.3 folds
Any [A9C]ext tested (30-3000 μM)
  steady-state current change at Vm ≤ 60 mV: did not change substantially
